One experiment deals with APP/PS1 mice. As to the kind of experiment: APP/PS1 transgenic mouse model of AD. The format is in vivo. The following applies: 30 mg/kg/day p.o. 10 days. The procedure:
All mice and rats were housed in a temperature- and humidity-controlled environment with a 12 h light/dark cycle and ad libitum access to food and water. All procedures were performed in accordance with the National Institutes of Health Guide for the Care and Use of Laboratory Animals and approved by the Institutional Animal Care and Use Committee of Korea Institute of Science and Technology (KIST-IACUC-2022-020-1). For the pharmacokinetics study, Sprague-Dawley rats were purchased from Koatech (South Korea) and maintained in a specific pathogen-free facility (Laboratory Animal Center, Daegu-Gyeongbuk Medical Innovation Foundation). For the LPS-induced neuroinflammation model or scopolamine-induced AD model, male C57BL/6N mice were obtained from DBL (South Korea). APP/PS1 (APPswe/PSEN1dE9) transgenic mice from the Jackson Laboratory (USA; stock number 004462) were maintained as hemizygotes on the C57BL/6; C3H genetic background at the Research Animal Resources Center of KIST. 10-week-old C57BL/6N and 12-month-old APP/PS1 were used in behavioral experiments with sex- and age-matched controls.
For the neuroinflammation model, C57BL/6N mice were intraperitoneally injected daily with 0.3 mg/kg LPS (Sigma-Aldrich, L2880) dissolved in saline (0.9% sodium chloride), for 6 consecutive days. In a non-genetic AD model, we induced acute memory deficits in C57BL/6N mice by intraperitoneal injection with 1 mg/kg of scopolamine hydrobromide (Sigma-Aldrich, S0929) dissolved in saline, 30 min before the behavioral tests. At the end of the experimental period, mice were deeply anesthetized with 2% avertin (500 mg/kg, i.p.) and transcardially perfused with saline. Brains were collected from each mouse, and the hippocampus and cortex were isolated and stored at -80 °C for biochemical analysis. Brain hemispheres were postfixed in 4% paraformaldehyde overnight at 4 °C, then placed in 30% sucrose solution for 48 h at 4 °C for cryoprotection and used for histological analysis.
The Y-maze test was used to evaluate the spatial learning and memory performance of mice. The Y-maze apparatus consisted of three identical arms disposed at a 120° angle from each other (41 cm long and 7 cm wide with 15 cm high walls). Mice were placed at the end of one arm and allowed to move freely in the maze for 10 min. The arm entries were manually recorded. Spontaneous alternation was defined as consecutive entries into three different arms and the percentage of alternation was calculated based on the following equation: alternation (%) = number of alternations/(total arm entries - 2) × 100.
Fixed mouse brains were embedded in an optimal cutting temperature compound (Leica, 3801480) and serially sectioned at 30 μm in a cryostat (Thermo Fisher Scientific, HM525 NX). Coronal hippocampal sections were stored in a storage solution (30% glycerol, 30% ethylene glycol, and 30% 0.2 M sodium phosphate buffer, pH 7.2) at 4 °C until use. After washing three times with PBS, the sections were blocked for 1 h with blocking buffer (0.3% Triton X-100 and 4% normal donkey serum in 0.1 M PBS) at room temperature, followed by incubation with primary antibodies in blocking buffer overnight at 4 °C. After washing with PBS, the sections were incubated with corresponding fluorescent secondary antibodies (Jackson ImmunoResearch, Alexa Fluor) for 1 h at room temperature and washed three times with PBS. Nuclei were counterstained with 4′,6-diamidino-2-phenylindole (DAPI; Invitrogen) during the second washing step. Sections were mounted with fluorescent mounting medium (Dako). Fluorescent images were acquired with the ImageXpress Pico (Molecular Devices; 20× magnification) or LSM 800 confocal microscope (Carl Zeiss; 40× magnification). Primary antibodies used are described in Table S6.
Z-stack projected images (20 μm thickness with a step size of 2 μm or 4 μm) were analyzed using the ImageJ software (NIH). To quantify glial reactivity, the mean fluorescence intensity of GFAP or IBA1 was measured. […]

Another experiment deals with T1, hPPARγ (Homo sapiens, UniProt P37231).
T1 sequence (P37231 1-505): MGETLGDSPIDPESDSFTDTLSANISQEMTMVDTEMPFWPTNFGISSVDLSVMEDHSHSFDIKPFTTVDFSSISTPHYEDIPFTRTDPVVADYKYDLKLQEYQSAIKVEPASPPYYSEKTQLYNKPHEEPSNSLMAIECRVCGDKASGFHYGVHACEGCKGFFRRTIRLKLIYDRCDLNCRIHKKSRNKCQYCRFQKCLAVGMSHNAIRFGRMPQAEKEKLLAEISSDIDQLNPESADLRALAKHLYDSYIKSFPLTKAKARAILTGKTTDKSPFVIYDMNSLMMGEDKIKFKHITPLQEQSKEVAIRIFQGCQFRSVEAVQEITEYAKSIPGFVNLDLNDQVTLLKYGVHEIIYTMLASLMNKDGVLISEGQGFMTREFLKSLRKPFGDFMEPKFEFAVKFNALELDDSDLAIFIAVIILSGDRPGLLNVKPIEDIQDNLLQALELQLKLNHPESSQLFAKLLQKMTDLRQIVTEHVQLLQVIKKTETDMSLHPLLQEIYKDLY
As to the kind of experiment: In vitro co-transfection (PPRE-luciferase) assay in CV-1 cells, hPPARγ. The format is cell-based. The conditions noted are these: 24 h, read-out: Potency (EC50) hPPARγ.

The target of a further experiment is T2, hPPARδ (Homo sapiens, UniProt Q03181).
T2 construct: expressed in transfected cells; host or cells: CV-1 monkey kidney cells
T2 sequence (Q03181 1-441): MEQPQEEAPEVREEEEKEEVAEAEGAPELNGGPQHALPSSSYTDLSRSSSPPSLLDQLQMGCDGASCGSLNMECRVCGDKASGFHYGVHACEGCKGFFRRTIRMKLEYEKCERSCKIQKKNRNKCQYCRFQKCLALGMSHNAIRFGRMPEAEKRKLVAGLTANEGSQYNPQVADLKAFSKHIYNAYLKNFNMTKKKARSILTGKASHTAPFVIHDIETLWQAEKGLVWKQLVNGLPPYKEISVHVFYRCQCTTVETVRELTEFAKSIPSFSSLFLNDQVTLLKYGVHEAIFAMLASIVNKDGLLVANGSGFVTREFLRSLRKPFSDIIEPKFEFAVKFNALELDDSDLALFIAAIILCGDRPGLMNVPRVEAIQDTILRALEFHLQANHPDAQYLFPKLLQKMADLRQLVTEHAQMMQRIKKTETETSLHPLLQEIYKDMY
As to the kind of experiment: In vitro co-transfection (PPRE-luciferase) assay in CV-1 cells, hPPARδ. The format is cell-based.

With `Cc1cc(SCc2[se]c(-c3ccc(C(F)(F)F)cc3)nc2C)ccc1OCC(=O)O` [Compound 5a, {2-Methyl-4-[4-methyl-2-(4-trifluoromethyl-phenyl)-selenazol-5-yl-methylsulfanyl]-phenoxy}-acetic acid], in the experiment on APP/PS1 mice, the “Astrocytic hypertrophy (Sholl analysis)” value is on record as “significantly suppressed”; the “BACE1 levels in cortical homogenates” value is “significantly diminished”; the “GFAP and IBA1 immunoreactivity, dentate gyrus” value is “significantly inhibited”; the “Gfap mRNA in hippocampus homogenates” value was “reduced levels”. In the experiment with APP/PS1 mice, the “Number and area of thioflavin-S Aβ plaques, cortex and hippocampus” value was “significant reduction in the number and area of Aβ plaques”; the “Number of microglia per plaque” value is reported as “significant increase”; the “Overall tau hyperphosphorylation in the brain” value is “inhibiting overall tau hyperphosphorylation”; the “Phagolysosome area within plaque-associated microglia and internalized Aβ area” value is “increased the phagolysosome area”. Also, in the experiment on APP/PS1 mice, the “Plaque-associated BACE1 accumulation, hippocampus” value was “significantly reduced”; the Y-maze spontaneous alternation entry is “prevented the decrease in alternation percentage”; the “Y-maze total number of arm entries” value is listed as “without inducing any changes”. Moreover, in the experiment with APP/PS1 mice (not significant), the “AT8-positive phosphorylated tau around Aβ plaques” value is “tend to decrease”. Besides, the EC50 at hPPARγ was above 10000 nM. Moreover, the half-maximal effective concentration (EC50) at hPPARδ (co-transfection assay, CV-1 cells, 24 h, read-out: Potency (EC50) hPPARδ) stood at 0.7 nM. Also, the “Selectivity index hPPARα/hPPARδ” value at hPPARδ (ratio EC50(hPPARα)/EC50(hPPARδ)) is above 14000. Further, the “Selectivity index hPPARγ/hPPARδ” value at hPPARδ (ratio EC50(hPPARγ)/EC50(hPPARδ)) is reported as above 14000.

A word on the EC50: it is the concentration needed to bring the measured effect to its halfway point.

For the origin of these results see article PMC11488110 (Theranostics, 2024).
